# According to patent EP0640594A1, “Hydantoin derivative as metalloprotease inhibitor” (FUJIREBIO INC., priority 1993, dated 1995):
# Molecular target: ACE (Homo sapiens, UniProt P12821)
# Assay: in vitro inhibitory activity on ACE
# Assay type: biochemical
# Conditions: 0.016 unit/ml ACE; 2.0 mM hippuryl-L-histidyl-L-leucine, pH 8.4, 37°C, 30 minutes
# Experimental: The inhibitory activity on ACE was measured according to the method described in Biochem. Pharmacolo., 20, 1637 (1971). That is, a 100 mM boric acid/sodium carbonate buffer solution (pH 8.4) containing 2.0 mM of hippuryl-L-histidyl-L-leucine, 0.016 unit/ml of ACE, 0.8 M of NaCl, and a predetermined amount of the sample compound was prepared and the reaction was carried out at 37°C for 30 minutes. The amount of hippuric acid produced by the ACE activity was measured to determine the inhibitory activity.
# ACE, sequence (P12821 30-1306, species assumed): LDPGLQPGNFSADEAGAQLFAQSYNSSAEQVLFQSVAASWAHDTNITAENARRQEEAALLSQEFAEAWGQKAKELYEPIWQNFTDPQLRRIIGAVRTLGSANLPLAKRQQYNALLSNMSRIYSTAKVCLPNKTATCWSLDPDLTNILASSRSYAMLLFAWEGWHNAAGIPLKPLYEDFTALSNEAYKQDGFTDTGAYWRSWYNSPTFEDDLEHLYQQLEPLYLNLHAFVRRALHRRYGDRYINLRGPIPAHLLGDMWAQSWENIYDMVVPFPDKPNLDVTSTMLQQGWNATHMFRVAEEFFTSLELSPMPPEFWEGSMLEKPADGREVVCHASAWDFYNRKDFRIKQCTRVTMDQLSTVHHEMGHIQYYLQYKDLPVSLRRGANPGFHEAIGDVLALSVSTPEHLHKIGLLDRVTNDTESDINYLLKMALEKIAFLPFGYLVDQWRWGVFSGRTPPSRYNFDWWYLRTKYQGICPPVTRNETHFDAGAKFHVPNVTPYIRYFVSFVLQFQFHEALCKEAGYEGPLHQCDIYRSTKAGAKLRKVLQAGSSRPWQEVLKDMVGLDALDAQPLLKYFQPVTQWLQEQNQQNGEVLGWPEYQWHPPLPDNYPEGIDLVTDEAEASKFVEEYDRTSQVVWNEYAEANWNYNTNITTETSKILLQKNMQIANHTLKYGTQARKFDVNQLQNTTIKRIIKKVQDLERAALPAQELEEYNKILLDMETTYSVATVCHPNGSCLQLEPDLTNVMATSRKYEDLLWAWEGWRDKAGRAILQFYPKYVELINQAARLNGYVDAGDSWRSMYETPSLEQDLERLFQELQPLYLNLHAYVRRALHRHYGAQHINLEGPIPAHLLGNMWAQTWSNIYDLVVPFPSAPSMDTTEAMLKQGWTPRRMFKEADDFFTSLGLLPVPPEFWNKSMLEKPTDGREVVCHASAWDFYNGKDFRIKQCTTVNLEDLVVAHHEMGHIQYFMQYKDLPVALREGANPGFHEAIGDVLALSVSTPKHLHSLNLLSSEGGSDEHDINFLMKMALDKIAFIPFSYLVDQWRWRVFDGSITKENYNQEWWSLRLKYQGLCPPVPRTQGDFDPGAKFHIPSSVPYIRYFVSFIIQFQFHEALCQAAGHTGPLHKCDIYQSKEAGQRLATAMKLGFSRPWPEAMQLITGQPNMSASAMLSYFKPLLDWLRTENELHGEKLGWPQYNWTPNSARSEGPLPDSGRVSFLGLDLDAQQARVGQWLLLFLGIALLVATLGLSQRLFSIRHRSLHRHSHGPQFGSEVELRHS
row,IC50,SMILES
1,5.4 µM,"O=C(O)CN1CC(=O)N(C(CS)Cc2ccccc2)C1=O (stereo not drawn) [Example 20, 1-(carboxymethyl)-3-(1-mercapto-3-phenyl-2-propyl)hydantoin]"
2,5.2 µM,"O=C1CN(C2(C(=O)O)CCCCC2)C(=O)N1C(CS)Cc1ccccc1 (stereo not drawn) [Example 24, 1-(1-carboxycyclohexyl)-3-(1-mercapto-3-phenyl-2-propyl) hydantoin]"
3,3.4 µM,"CC(C)C1C(=O)N(C(CS)Cc2ccccc2)C(=O)N1CC(=O)O (stereo not drawn) [Example 36, 1-(carboxymethyl)-5-(1-methylethyl)-3-(1-mercapto-3-phenyl-2-propyl)hydantoin]"
4,2.4 µM,"CC1(C)C(=O)N(C(CS)Cc2ccccc2)C(=O)N1CC(=O)O (stereo not drawn) [Example 40, 1-(carboxymethyl)-5,5-dimethyl-3-(1-mercapto-3-phenyl-2-propyl)hydantoin]"
5,1.6 µM,"CCC(C)C1C(=O)N(C(CS)Cc2ccccc2)C(=O)N1CC(=O)O (stereo not drawn) [Example 42, 5-(2-butyl)-1-(carboxymethyl)-3-(1-mercapto-3-phenyl-2-propyl)hydantoin]"
6,1.1 µM,"CC(O)C1C(=O)N(C(CS)Cc2ccccc2)C(=O)N1CC(=O)O (stereo not drawn) [Example 43, 1-(carboxymethyl)-5-(1-hydroxyethyl)-3-(1-mercapto-3-phenyl-2-propyl)hydantoin]"
7,0.3 µM,"O=C(O)CN1C(=O)N(C(CS)Cc2ccccc2)C(=O)C12CCC2 (stereo not drawn) [Example 50, 1-(carboxymethyl)-3-(1-mercapto-3-phenyl-2-propyl)-hydantoin-5-spirocyclobutane]"

# Second part, the molecule before the results:
row,SMILES,IC50
1,O=C(O)CN1C(=O)N(C(CS)Cc2ccccc2)C(=O)C12CCCCC2 (stereo not drawn) [Example 34],0.2 µM
2,"O=C(O)CN1C(=O)N(C(CS)Cc2ccccc2)C(=O)C12CCCC2 (stereo not drawn) [Example 41, 1-(carboxymethyl)-3-(1-mercapto-3-phenyl-2-propyl)hydantoin-5-spirocyclopentane]",0.46 µM
3,"O=C(O)CN1C(=O)N(C(CS)Cc2ccccc2)C(=O)C12Cc1ccccc1C2 (stereo not drawn) [Example 44, 1-(carboxymethyl)-3-(1-mercapto-3-phenyl-2-propyl)hydantoin-5-spiro-2'-indane]",0.68 µM
4,"O=C(O)CN1C(=O)N(C(CS)Cc2ccccc2)C(=O)C1C1CCCC1 (stereo not drawn) [Example 51, 1-(carboxymethyl)-5-cyclopentyl-3-(1-mercapto-3-phenyl-2-propyl)hydantoin]",0.37 µM
5,"O=C(O)CN1C(=O)N(C(CS)Cc2ccccc2)C(=O)C1c1ccccc1 (stereo not drawn) [Example 52, 1-(carboxymethyl)-5-phenyl-3-(1-mercapto-3-phenyl-2-propyl)hydantoin]",0.45 µM
6,"CC(CS)N1C(=O)N(CC(=O)O)C2(CCCC2)C1=O (stereo not drawn) [Example 63, 1-(carboxymethyl)-3-(1-mercapto-2-propyl)hydantoin-5-spirocyclopentane]",0.18 µM
7,"CC(C)C(CS)N1C(=O)N(CC(=O)O)C2(CCCC2)C1=O (stereo not drawn) [Example 65, 1-(carboxymethyl)-3-(1-mercapto-3-methyl-2-butyl)hydantoin-5-spirocyclopentane]",1 µM
8,"CC(C)CC(CS)N1C(=O)N(CC(=O)O)C2(CCCC2)C1=O (stereo not drawn) [Example 67, 1-(carboxymethyl)-3-(1-mercapto-4-methyl-2-pentyl)hydantoin-5-spirocyclopentane]",0.51 µM

# Molecular target: T1, NEP (Rattus norvegicus, UniProt P07861)
# T1 construct: The fractions with the NEP activity were collected, and was used as the enzyme source for the test; from tissue; host or cells: kidneys of male SD rats
# T1 sequence (P07861 1-750): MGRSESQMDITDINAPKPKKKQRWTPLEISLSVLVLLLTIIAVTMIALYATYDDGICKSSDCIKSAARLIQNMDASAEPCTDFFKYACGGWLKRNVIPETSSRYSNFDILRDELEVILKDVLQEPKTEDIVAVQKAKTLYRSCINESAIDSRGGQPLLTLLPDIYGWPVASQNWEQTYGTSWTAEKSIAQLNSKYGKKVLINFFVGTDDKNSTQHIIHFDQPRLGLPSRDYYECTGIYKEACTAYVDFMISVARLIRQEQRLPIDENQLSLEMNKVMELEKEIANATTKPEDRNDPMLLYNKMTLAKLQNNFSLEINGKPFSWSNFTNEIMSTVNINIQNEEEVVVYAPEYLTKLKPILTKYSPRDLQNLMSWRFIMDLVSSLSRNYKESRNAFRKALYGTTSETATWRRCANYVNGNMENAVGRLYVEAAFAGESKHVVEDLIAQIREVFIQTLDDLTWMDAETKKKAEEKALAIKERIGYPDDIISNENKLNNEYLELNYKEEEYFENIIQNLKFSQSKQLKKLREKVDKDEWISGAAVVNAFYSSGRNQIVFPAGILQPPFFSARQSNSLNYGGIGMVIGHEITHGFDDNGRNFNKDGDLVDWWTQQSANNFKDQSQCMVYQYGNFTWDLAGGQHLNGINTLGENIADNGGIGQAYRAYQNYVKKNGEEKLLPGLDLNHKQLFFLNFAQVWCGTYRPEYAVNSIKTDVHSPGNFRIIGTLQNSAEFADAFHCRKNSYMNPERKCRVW
# Assay: in vitro inhibitory activity on NEP
# Assay type: biochemical
# Conditions: NEP from kidneys of male SD rats; 0.4 mM glutaryl-Ala-Ala-Phe-4-methoxy-β-naphthylamide, pH 7.4, 37°C, 1 hour
# Experimental: NEP was prepared as follows in accordance with the process as described in Peptide, 9, 173 (1988). Kidneys of male SD rats were homogenized with 10 times by volume of a tris/HCl buffer solution (pH 7.0) containing mannitol and magnesium chloride. The homogenate was centrifuged (700 × g) to give a supernatant liquid. To the supernatant liquid was added n-octyl-β-D-glucoside in an amount to give a final concentration of 1 %, followed by stirring at 4°C for 1 hour, thereby solubilizing the enzyme. The solution was dialyzed against 5 mM HEPES/0.1% Triton (pH 7.4). The inner liquid was applied to a DE-52 column (2.5 cm i.d. × 15 cm) equilibrated with 5 mM HEPES/0.1% Triton (pH 7.4). The column was eluted with 500 ml of a NaCl solution having a linear concentration gradient of 0-300 mM. The fractions with the NEP activity were collected, and was used as the enzyme source for the test.
# The inhibitory activity on NEP was measured according to the method described in Biochemistry, 20, 4942 (1981). That is, 250 µl of a 50 mM tris/HCl buffer solution (pH 7.4) containing 0.4 mM of glutaryl-Ala-Ala-Phe-4-methoxy-β-naphthylamide, 0.25 unit/ml of leucine aminopeptidase, a predetermined amount of the sample compound and NEP was prepared and the reaction was carried out at 37°C for 1 hour. The amount of 4-methoxy-β-naphthylamide produced by the NEP activity was measured to determine the inhibitory activity.
row,IC50,SMILES
1,0.45 µM,"O=C1CN(C2CCCC2)C(=O)N1C(CS)Cc1ccccc1 (stereo not drawn) [Example 1, 1-cyclopentyl-3-(1-mercapto-3-phenyl-2-propyl)hydantoin]"
2,0.23 µM,"O=C(O)CN1CC(=O)N(C(CS)Cc2ccccc2)C1=O (stereo not drawn) [Example 20, 1-(carboxymethyl)-3-(1-mercapto-3-phenyl-2-propyl)hydantoin]"
3,0.052 µM,"CC(C)[C@@H](C(=O)O)N1CC(=O)N(C(CS)Cc2ccccc2)C1=O (stereo partly drawn) [Example 21, 1-[(1S)-1-carboxy-2-methylpropyl)-3-(1-mercapto-3-phenyl-2-propyl)hydantoin]"
4,0.17 µM,"C[C@@H](C(=O)O)N1CC(=O)N(C(CS)Cc2ccccc2)C1=O (stereo partly drawn) [Example 26, 1-[(1S)-1-carboxyethyl]-3-(1-mercapto-3-phenyl-2-propyl)hydantoin]"
5,0.26 µM,"O=C(O)[C@H](Cc1ccccc1)N1CC(=O)N(C(CS)Cc2ccccc2)C1=O (stereo partly drawn) [Example 27, 1-[(1S)-1-carboxy-2-phenylethyl]-3-(1-mercapto-3-phenyl-2-propyl)hydantoin]"
6,0.22 µM,"CC(C)C[C@@H](C(=O)O)N1CC(=O)N(C(CS)Cc2ccccc2)C1=O (stereo partly drawn) [Example 28, 1-[(1S)-1-carboxy-3-methylbutyl]-3-(1-mercapto-3-phenyl-2-propyl)hydantoin]"
7,0.056 µM,"CCC(C)[C@@H](C(=O)O)N1CC(=O)N(C(CS)Cc2ccccc2)C1=O (stereo partly drawn) [Example 29, 1-[(1S)-1-carboxy-2-methylbutyl]-3-(1-mercapto-3-phenyl-2-propyl)hydantoin]"
8,0.059 µM,"O=C1CN(N2CCCCC2)C(=O)N1C(CS)Cc1ccccc1 (stereo not drawn) [Example 45, 3-(1-mercapto-3-phenyl-2-propyl)-1-piperidinylhydantoin]"
9,0.11 µM,"O=C1CN(N2CCOCC2)C(=O)N1C(CS)Cc1ccccc1 (stereo not drawn) [Example 46, 3-(1-mercapto-3-phenyl-2-propyl)-1-(4-morpholinyl)hydantoin]"

# The remaining lines, values behind:
row,SMILES,IC50
1,"O=C1CN(C2CCCCC2)C(=O)N1C(CS)Cc1ccccc1 (stereo not drawn) [Example 3, 1-cyclohexyl-3-(1-mercapto-3-phenyl-2-propyl)hydantoin]",0.25 µM
2,"O=C(O)CC1C(=O)N(C(CS)Cc2ccccc2)C(=O)N1C1CCCC1 (stereo not drawn) [Example 18, 5-(carboxymethyl)-1-cyclopentyl-3-(1-mercapto-3-phenyl-2-propyl)hydantoin]",0.25 µM
3,"O=C(O)CCC1C(=O)N(C(CS)Cc2ccccc2)C(=O)N1C1CCCC1 (stereo not drawn) [Example 19, 5-(2-carboxyethyl)-1-cyclopentyl-3-(1-mercapto-3-phenyl-2-propyl)hydantoin]",0.16 µM
4,"O=C(O)CN1C(=O)N(C(CS)Cc2ccccc2)C(=O)C12CCCC2 (stereo not drawn) [Example 41, 1-(carboxymethyl)-3-(1-mercapto-3-phenyl-2-propyl)hydantoin-5-spirocyclopentane]",0.46 µM
5,"O=C(O)CN1C(=O)N(C(CS)Cc2ccccc2)C(=O)C12Cc1ccccc1C2 (stereo not drawn) [Example 44, 1-(carboxymethyl)-3-(1-mercapto-3-phenyl-2-propyl)hydantoin-5-spiro-2'-indane]",0.099 µM
6,"O=C(O)CN1C(=O)N(C(CS)Cc2ccccc2)C(=O)C1C1CCCC1 (stereo not drawn) [Example 51, 1-(carboxymethyl)-5-cyclopentyl-3-(1-mercapto-3-phenyl-2-propyl)hydantoin]",0.56 µM
7,"O=C(O)CN1C(=O)N(C(CS)Cc2ccccc2)C(=O)C1c1ccccc1 (stereo not drawn) [Example 52, 1-(carboxymethyl)-5-phenyl-3-(1-mercapto-3-phenyl-2-propyl)hydantoin]",0.061 µM
8,"O=C(O)CN1C(=O)N(C(CS)Cc2ccccc2)C(=O)C1C(c1ccccc1)c1ccccc1 (stereo not drawn) [Example 53, 1-(carboxymethyl)-5-(diphenylmethyl)-3-(1-mercapto-3-phenyl-2-propyl)hydantoin]",0.23 µM
9,"O=C(O)CN1C(=O)N(C(CS)Cc2ccccc2)C(=O)C1c1ccc(O)cc1 (stereo not drawn) [Example 55, 1-(carboxymethyl)-5-(4-hydroxyphenyl)-3-(1-mercapto-3-phenyl-2-propyl)hydantoin]",0.09 µM
10,"COc1ccc(C2C(=O)N(C(CS)Cc3ccccc3)C(=O)N2CC(=O)O)cc1 (stereo not drawn) [Example 56, 1-(carboxymethyl)-3-(1-mercapto-3-phenyl-2-propyl)-5-(4-methoxyphenyl)hydantoin]",0.0065 µM
11,"CC(C)Oc1ccc(C2C(=O)N(C(CS)Cc3ccccc3)C(=O)N2CC(=O)O)cc1 (stereo not drawn) [Example 58, 1-(carboxymethyl)-3-(1-mercapto-3-phenyl-2-propyl)-5-[4-(2-propyloxy)phenyl]hydantoin]",0.028 µM
12,"O=C(O)CN1C(=O)N(C(CS)Cc2ccccc2)C(=O)C1C1c2ccccc2-c2ccccc21 (stereo not drawn) [Example 60, 1-(carboxymethyl)-5-(9-fluorenyl)-3-(1-mercapto-3-phenyl-2-propyl)hydantoin]",0.18 µM
13,"CC(C)CC(CS)N1C(=O)CN(CC(=O)O)C1=O (stereo not drawn) [Example 66, 1-(carboxymethyl)-3-(1-mercapto-4-methyl-2-pentyl)-hydantoin]",0.7 µM
14,"CC(C)CC(CS)N1C(=O)N(CC(=O)O)C2(CCCC2)C1=O (stereo not drawn) [Example 67, 1-(carboxymethyl)-3-(1-mercapto-4-methyl-2-pentyl)hydantoin-5-spirocyclopentane]",0.16 µM
15,"O=C(O)Cn1c(=O)n(C(CS)Cc2ccccc2)c(=O)n1C1CCCC1 (stereo not drawn) [Example 72, 1-(carboxymethyl)-2-cyclopentyl-4-(1-mercapto-3-phenyl-2-propyl)urazole]",0.4 µM
